Reference: ChEMBL document CHEMBL3997783, “Synthesis and anti-acute myeloid leukemia activity of C-14 modified parthenolide derivatives” (Eur J Med Chem, 2017)

What was measured:
HL-60 = experiment: Cytotoxicity against human HL60 cells assessed as decrease in cell proliferation after 48 hrs by MTT assay; format: functional, cell-based; conditions: HL-60, 48 h
KG-1a [1] = experiment: Cytotoxicity against human KG1a cells assessed as decrease in cell proliferation after 48 hrs by MTT assay; format: functional, cell-based
KG-1a [2] = experiment: Induction of apoptosis in human KG1a cells assessed as necrotic cells at 20 uM after 16 hrs by annexin V-FITC/propidium iodide staining-based flow cytometric method (reference value: 0.170%); format: functional
KG-1a [3] = experiment: Induction of apoptosis in human KG1a cells assessed as late apoptotic cells at 20 uM after 16 hrs by annexin V-FITC/propidium iodide staining-based flow cytometric method (reference value: 1.01%); format: functional
KG-1a [4] = experiment: Induction of apoptosis in human KG1a cells assessed as early apoptotic cells at 20 uM after 16 hrs by annexin V-FITC/propidium iodide staining-based flow cytometric method (reference value: 0.113%); format: functional
KG-1a [5] = experiment: Induction of apoptosis in human KG1a cells assessed as late apoptotic cells at 10 uM after 16 hrs by annexin V-FITC/propidium iodide staining-based flow cytometric method (reference value: 1.01%); format: functional
KG-1a [6] = experiment: Induction of apoptosis in human KG1a cells assessed as viable cells at 10 uM after 16 hrs by annexin V-FITC/propidium iodide staining-based flow cytometric method (reference value: 98.7%); format: functional; conditions: read-out: Activity
KG-1a [7] = experiment: Induction of apoptosis in human KG1a cells assessed as viable cells at 20 uM after 16 hrs by annexin V-FITC/propidium iodide staining-based flow cytometric method (reference value: 98.7%); format: functional; conditions: read-out: Activity
KG-1a [8] = experiment: Induction of apoptosis in human KG1a cells assessed as early apoptotic cells at 10 uM after 16 hrs by annexin V-FITC/propidium iodide staining-based flow cytometric method (reference value: 0.113%); format: functional
KG-1a [9] = experiment: Induction of apoptosis in human KG1a cells assessed as necrotic cells at 10 uM after 16 hrs by annexin V-FITC/propidium iodide staining-based flow cytometric method (reference value: 0.170%); format: functional
[10] = Selectivity ratio of IC50 for human KG1a cells to IC50 for human HL60 cells; format: functional

Row | SMILES | IC50 (HL-60) | IC50 (KG-1a [1]) | further results
1 | C=C1C(=O)O[C@H]2[C@H]1CC/C(COC(=O)c1ccc(C(F)(F)F)cc1)=C\CC[C@@]1(C)O[C@@H]21 | 2.3 µM | 4 µM | –
2 | C=C1C(=O)O[C@H]2[C@H]1CC/C(C(=O)N1CCN(C(=O)OC(C)(C)C)CC1)=C\CC[C@@]1(C)O[C@@H]21 | 5.1 µM | 1.7 µM | –
3 | C=C1C(=O)O[C@H]2[C@H]1CC/C(C(=O)N1CCOCC1)=C\CC[C@@]1(C)O[C@@H]21 | 3.9 µM | 29.9 µM | –
4 | C=C1C(=O)O[C@H]2[C@H]1CC/C(C(=O)N1CCCC1)=C\CC[C@@]1(C)O[C@@H]21 | 4 µM | 1.8 µM | –
5 | C=C1C(=O)O[C@H]2[C@H]1CC/C(C(=O)OCc1ccccc1)=C\CC[C@@]1(C)O[C@@H]21 | 2.2 µM | 3.3 µM | –
6 | C=C1C(=O)O[C@H]2[C@H]1CC/C(COC(=O)c1cccs1)=C\CC[C@@]1(C)O[C@@H]21 | 1.7 µM | 3.9 µM | –
7 | C=C1C(=O)O[C@H]2[C@H]1CC/C(COC(=O)c1ccccc1C#N)=C\CC[C@@]1(C)O[C@@H]21 | 1.2 µM | 3.3 µM | –
8 | C=C1C(=O)O[C@H]2[C@H]1CC/C(C(=O)N(CCC)CCC)=C\CC[C@@]1(C)O[C@@H]21 | 1 µM | 2 µM | –
9 | C=C1C(=O)O[C@H]2[C@H]1CC/C(COCc1ccc(C(F)(F)F)cc1)=C\CC[C@@]1(C)O[C@@H]21 | 1.9 µM | 2.4 µM | –
10 | C=C1C(=O)O[C@H]2[C@H]1CC/C(C(=O)N1CCC(C)CC1)=C\CC[C@@]1(C)O[C@@H]21 | 6.3 µM | 1.6 µM | –
11 | C=C1C(=O)O[C@H]2[C@H]1CC/C(C(=O)N(C)C)=C\CC[C@@]1(C)O[C@@H]21 | 1.3 µM | 6.1 µM | –
12 | C=C1C(=O)O[C@H]2[C@H]1CC/C(c1nc3ccccc3s1)=C\CC[C@@]1(C)O[C@@H]21 | 8.2 µM | 5.1 µM | –
13 | C=C1C(=O)O[C@H]2[C@H]1CC/C(COC(=O)/C=C/C)=C\CC[C@@]1(C)O[C@@H]21 | 4.6 µM | 5.1 µM | –
14 | C=C1C(=O)O[C@H]2[C@H]1CC/C(C(=O)N(CCCC)CCCC)=C\CC[C@@]1(C)O[C@@H]21 | 3.7 µM | 1.4 µM | –
15 | C=C1C(=O)O[C@H]2[C@H]1CC/C(COCc1ccccc1)=C\CC[C@@]1(C)O[C@@H]21 | 3.5 µM | 4.8 µM | –
16 | C=C1C(=O)O[C@H]2[C@H]1CC/C(C(=O)N(CC)CC)=C\CC[C@@]1(C)O[C@@H]21 | 2.7 µM | 4.3 µM | –
17 | C=C1C(=O)O[C@H]2[C@H]1CC/C(COC(=O)c1ccccc1)=C\CC[C@@]1(C)O[C@@H]21 | 2.4 µM | 3.3 µM | –
18 | C=C1C(=O)O[C@H]2[C@H]1CC/C(COCc1ccc(OC)cc1)=C\CC[C@@]1(C)O[C@@H]21 | 2.7 µM | 1.1 µM | –

Row | SMILES | IC50 (HL-60) | IC50 (KG-1a [1]) | further results
19 | C=C1C(=O)O[C@H]2[C@H]1CC/C(C(=O)N1CCC(c3ccccc3)CC1)=C\CC[C@@]1(C)O[C@@H]21 | 2.2 µM | 2.2 µM | –
20 | C=C1C(=O)O[C@H]2[C@H]1CC/C(COC(=O)CCCCCC)=C\CC[C@@]1(C)O[C@@H]21 | 6 µM | 5.8 µM | –
21 | C=C1C(=O)O[C@H]2[C@H]1CC/C(C(=O)O)=C\CC[C@@]1(C)O[C@@H]21 | > 50 µM | > 50 µM | –
22 | C=C1C(=O)O[C@H]2[C@H]1CC/C(COC)=C\CC[C@@]1(C)O[C@@H]21 | 7.7 µM | 2.4 µM | –
23 | C=C1C(=O)O[C@H]2[C@H]1CC/C(COC(=O)c1ccc(C#N)cc1)=C\CC[C@@]1(C)O[C@@H]21 | 1.7 µM | 6.7 µM | –
24 | C=C1C(=O)O[C@H]2[C@H]1CC/C(COC(=O)/C=C/c1ccccc1)=C\CC[C@@]1(C)O[C@@H]21 | 1.1 µM | 0.4 µM | Activity (KG-1a [2]): 1.61%; Activity (KG-1a [3]): 46.7%; Activity (KG-1a [4]): 0.087%; Activity (KG-1a [5]): 22.7%; viability at 10 µM (KG-1a [6]): 75.6%; viability at 20 µM (KG-1a [7]): 51.6%; Activity (KG-1a [8]): 0.381%; Activity (KG-1a [9]): 1.37%
25 | C=C1C(=O)O[C@H]2[C@H]1CC/C(C(=O)N1CCN(C(=O)/C3=C/CC[C@@]4(C)O[C@H]4[C@H]4OC(=O)C(=C)[C@@H]4CC3)CC1)=C\CC[C@@]1(C)O[C@@H]21 | > 50 µM | > 50 µM | –
26 | C=C1C(=O)O[C@H]2[C@H]1CC/C(C(=O)N1CCNCC1)=C\CC[C@@]1(C)O[C@@H]21 | > 50 µM | > 50 µM | –
27 | C=C1C(=O)O[C@H]2[C@H]1CC/C(C(=O)N1CCCCC1)=C\CC[C@@]1(C)O[C@@H]21 | 1.8 µM | 3.2 µM | –
28 | C=C1C(=O)O[C@H]2[C@H]1CC/C(COC(C)=O)=C\CC[C@@]1(C)O[C@@H]21 | 2.8 µM | 6.3 µM | –
29 | C=C1C(=O)O[C@H]2[C@H]1CC/C(C(=O)OCc1ccc(C(F)(F)F)cc1)=C\CC[C@@]1(C)O[C@@H]21 | 1 µM | 2 µM | –
30 | C=C1C(=O)O[C@H]2[C@H]1CC/C(C(=O)OC)=C\CC[C@@]1(C)O[C@@H]21 | 4.9 µM | 5.4 µM | –
31 | C=C1C(=O)O[C@H]2[C@H]1CC/C(COC(=O)C1CCCCC1)=C\CC[C@@]1(C)O[C@@H]21 | 6.7 µM | 8.6 µM | –
32 | C=C1C(=O)O[C@H]2[C@H]1CC/C(COC(=O)c1ccc(OC)cc1)=C\CC[C@@]1(C)O[C@@H]21 | 2.1 µM | 5.3 µM | –
33 | C=C1C(=O)O[C@@H]2C3O[C@]3(C)CC/C=C(\C)CC[C@@H]12 (some centres undefined) | 4.2 µM | 3.5 µM | Activity (KG-1a [2]): 1.81%; Activity (KG-1a [3]): 13.1%; Activity (KG-1a [4]): 0.336%; Activity (KG-1a [5]): 4.08%; viability at 10 µM (KG-1a [6]): 95.2%; viability at 20 µM (KG-1a [7]): 84.7%; Activity (KG-1a [8]): 0.413%; Activity (KG-1a [9]): 0.327%
34 | C=C1C(=O)O[C@H]2[C@H]1CC/C(C=O)=C\CC[C@@]1(C)O[C@@H]21 | 9.9 µM | 6.3 µM | –
35 | C=C1C(=O)O[C@H]2[C@H]1CC/C(CO)=C\CC[C@@]1(C)O[C@@H]21 | 10.3 µM | 6.8 µM | –
36 | COc1cccc2c1C(=O)c1c(O)c3c(c(O)c1C2=O)C[C@@](O)(C(=O)CO)C[C@@H]3O[C@H]1C[C@H](N)[C@H](O)[C@H](C)O1.Cl [DOXORUBICIN HYDROCHLORIDE] | 0.019 µM | 0.08 µM | Ratio IC50 [10]: 4
